Results: ChEMBL document CHEMBL1201862, “PubChem BioAssay data set” (2004)
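Dose response: 5 concentrations. Exposure: 48 h. Format: 96-well plates. Endpoint: linear interpolation; highest concentration if not reached. GI50 marks 50% less growth.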 Active and inactive are the calls of the source. No stated cut-off is given here; in the data, active = GI50 up to about 1.1 µM and inactive = higher.

How the values were obtained:
Experiment in all cases: NCI anticancer screen, dose series, 48 h
DMS-114 = system: DMS-114
K562 = system: K562
SNB-19 = system: SNB-19
KM12 = system: KM12
HCT-116 = system: HCT-116
HOP-92 = system: HOP-92
NCI-H23 = system: NCI-H23
SK-OV-3 = system: SK-OV-3
CCRF-CEM = system: CCRF-CEM
NCI-H522 = system: NCI-H522
SF-295 = system: SF-295
UO-31 = system: UO-31
HL-60 = system: HL-60
OVCAR-5 = system: OVCAR-5
HOP-62 = system: HOP-62
SNB-78 = system: SNB-78
M19-MEL = system: M19-MEL
RXF 393 = system: RXF 393
RXF 631 = system: RXF 631
A498 = system: A498
A549 = system: A549
U-251 = system: U-251
EKVX = system: EKVX
TK-10 = system: TK-10
SK-MEL-28 = system: SK-MEL-28
OVCAR-8 = system: OVCAR-8
M14 = system: M14
MOLT-4 = system: MOLT-4
UACC-62 = system: UACC-62
SR = system: SR
NCI-H226 = system: NCI-H226
HT-29 = system: HT-29
NCI-H460 = system: NCI-H460
IGROV-1 = system: IGROV-1
ACHN = system: ACHN
UACC-257 = system: UACC-257
Malme-3M = system: Malme-3M
BT-549 = system: BT-549
MDA-MB-231 = system: MDA-MB-231
T47D = system: T47D
PC-3 = system: PC-3
DU-145 = system: DU-145
Hs-578T = system: Hs-578T
HCC 2998 = system: HCC 2998
HCT-15 = system: HCT-15
SN12C = system: SN12C
CAKI-1 = system: CAKI-1
RPMI-8226 = system: RPMI-8226
LXFL 529 = system: LXFL 529
DLD-1 = system: DLD-1
DMS-273 = system: DMS-273
OVCAR-4 = system: OVCAR-4
SF-268 = system: SF-268
MDA-MB-435 = system: MDA-MB-435
MCF7 = system: MCF7
NCI/ADR-RES = system: NCI/ADR-RES
HOP-18 = system: HOP-18
SK-MEL-5 = system: SK-MEL-5
SF-539 = system: SF-539
COLO 205 = system: COLO 205
LOX IMVI = system: LOX IMVI
SK-MEL-2 = system: SK-MEL-2
SNB-75 = system: SNB-75
KM-20L2 = system: KM-20L2
XF498 = system: XF498
SW-620 = system: SW-620
786-0 = system: 786-0
OVCAR-3 = system: OVCAR-3
MDA-N = system: MDA-N

C[C@H]1C(=O)c2c(cc(O)c(C3OC(CO)C(O)C(O)C3O)c2O)OC1c1ccc(O)c(O)c1 (some centres not stated)
GI50 (DMS-114): > 100000 nM (inactive) | GI50 (K562): > 10000 nM (inactive) | GI50 (SNB-19): > 100000 nM (inactive) | GI50 (KM12): > 100000 nM (inactive) | GI50 (HCT-116): > 100000 nM (inactive) | GI50 (HOP-92): > 100000 nM (inactive) | GI50 (NCI-H23): > 100000 nM (inactive) | GI50 (SK-OV-3): > 100000 nM (inactive) | GI50 (CCRF-CEM): > 100000 nM (inactive) | GI50 (NCI-H522): > 100000 nM (inactive) | GI50 (SF-295): > 100000 nM (inactive) | GI50 (UO-31): > 100000 nM (inactive) | GI50 (HL-60): > 100000 nM (inactive) | GI50 (OVCAR-5): > 100000 nM (inactive) | GI50 (HOP-62): > 100000 nM (inactive) | GI50 (SNB-78): > 100000 nM (inactive) | GI50 (M19-MEL): > 100000 nM (inactive) | GI50 (RXF 393): > 100000 nM (inactive) | GI50 (RXF 631): > 100000 nM (inactive) | GI50 (A498): > 100000 nM (inactive) | GI50 (A549): > 100000 nM (inactive) | GI50 (U-251): > 100000 nM (inactive) | GI50 (EKVX): > 100000 nM (inactive) | GI50 (TK-10): > 100000 nM (inactive) | GI50 (SK-MEL-28): > 100000 nM (inactive) | GI50 (OVCAR-8): > 100000 nM (inactive) | GI50 (M14): > 100000 nM (inactive) | GI50 (MOLT-4): > 100000 nM (inactive) | GI50 (UACC-62): > 100000 nM (inactive) | GI50 (SR): > 100000 nM (inactive) | GI50 (NCI-H226): 64900 nM (inactive) | GI50 (HT-29): > 100000 nM (inactive) | GI50 (NCI-H460): > 100000 nM (inactive) | GI50 (IGROV-1): > 100000 nM (inactive) | GI50 (ACHN): > 100000 nM (inactive) | GI50 (UACC-257): > 100000 nM (inactive)

CC[C@@]1(OC(=O)C(N)CCC(=O)O)C(=O)OCc2c1cc1n(c2=O)Cc2cc3ccccc3nc2-1 (some centres not stated)
GI50 (DMS-114): 49.3 nM (active) | GI50 (Malme-3M): 266 nM (active) | GI50 (BT-549): 733 nM (active) | GI50 (K562): 314 nM (active) | GI50 (MDA-MB-231): 1630 nM (inactive) | GI50 (SNB-19): 54.1 nM (active) | GI50 (HCT-116): 122 nM (active) | GI50 (HOP-92): 615 nM (active) | GI50 (NCI-H23): 34.5 nM (active) | GI50 (T47D): 26.7 nM (active) | GI50 (SK-OV-3): 55.3 nM (active) | GI50 (CCRF-CEM): < 10 nM (active) | GI50 (PC-3): 194 nM (active) | GI50 (NCI-H522): 53.6 nM (active) | GI50 (DU-145): < 10 nM (active) | GI50 (SF-295): 21.3 nM (active) | GI50 (UO-31): 49.3 nM (active) | GI50 (Hs-578T): 7050 nM (inactive) | GI50 (HL-60): 20.8 nM (active) | GI50 (OVCAR-5): 248 nM (active) | GI50 (HCC 2998): 461 nM (active) | GI50 (HCT-15): 453 nM | GI50 (HOP-62): < 12.4 nM (active) | GI50 (SNB-78): 1820 nM (inactive) | GI50 (SN12C): 24.4 nM (active) | GI50 (CAKI-1): < 18.2 nM (active) | GI50 (M19-MEL): 189 nM (active) | GI50 (RPMI-8226): 148 nM (active) | GI50 (LXFL 529): 1380 nM (inactive) | GI50 (DLD-1): 1480 nM (inactive) | GI50 (RXF 393): 147 nM (active) | GI50 (DMS-273): 18.3 nM (active) | GI50 (OVCAR-4): 1240 nM (inactive) | GI50 (A498): 187 nM (active) | GI50 (A549): 34.8 nM (active) | GI50 (U-251): 20.2 nM (active) | GI50 (SF-268): 25.6 nM (active) | GI50 (MDA-MB-435): 219 nM (active) | GI50 (MCF7): < 10 nM (active) | GI50 (NCI/ADR-RES): < 10 nM (active) | GI50 (EKVX): 1440 nM (inactive) | GI50 (TK-10): 4330 nM (inactive) | GI50 (SK-MEL-28): 1350 nM (inactive) | GI50 (HOP-18): 217 nM (active) | GI50 (OVCAR-8): 117 nM (active) | GI50 (SK-MEL-5): 73.6 nM (active) | GI50 (M14): 34.7 nM (active) | GI50 (MOLT-4): 10.6 nM (active) | GI50 (SF-539): 18 nM (active) | GI50 (COLO 205): 667 nM (active) | GI50 (UACC-62): < 15.2 nM (active) | GI50 (LOX IMVI): 19.6 nM (active) | GI50 (SK-MEL-2): 1120 nM (active) | GI50 (NCI-H226): 50.2 nM (active) | GI50 (HT-29): 261 nM (active) | GI50 (NCI-H460): 11.2 nM (active) | GI50 (SNB-75): 52.6 nM (active) | GI50 (KM-20L2): 474 nM (active) | GI50 (IGROV-1): 513 nM (active) | GI50 (XF498): 197 nM (active) | GI50 (ACHN): 18.7 nM (active) | GI50 (UACC-257): 228 nM (active) | GI50 (SW-620): 179 nM (active) | GI50 (786-0): 20.6 nM (active) | GI50 (OVCAR-3): 417 nM (active) | GI50 (MDA-N): 314 nM (active)
